Experimental data taken from ChEMBL document CHEMBL3991601, “The target landscape of clinical kinase drugs” (Science, 2017).
Activity calls are given as the source filed them. Rule as the data show it, for most assays here: actives have a measured Kd and inactives only a lower limit.

Tests used:
[1] = target: Chromodomain-helicase-DNA-binding protein 4 (Homo sapiens, UniProt Q14839)
[2] = target: Interleukin-1 receptor-associated kinase 1 (Homo sapiens, UniProt P51617)
[3] = target: Elongation factor Tu, mitochondrial (Homo sapiens, UniProt P49411)
[4] = target: T1, Receptor-type tyrosine-protein kinase FLT3 (Homo sapiens, UniProt P36888)
T1 sequence (P36888 whole entry): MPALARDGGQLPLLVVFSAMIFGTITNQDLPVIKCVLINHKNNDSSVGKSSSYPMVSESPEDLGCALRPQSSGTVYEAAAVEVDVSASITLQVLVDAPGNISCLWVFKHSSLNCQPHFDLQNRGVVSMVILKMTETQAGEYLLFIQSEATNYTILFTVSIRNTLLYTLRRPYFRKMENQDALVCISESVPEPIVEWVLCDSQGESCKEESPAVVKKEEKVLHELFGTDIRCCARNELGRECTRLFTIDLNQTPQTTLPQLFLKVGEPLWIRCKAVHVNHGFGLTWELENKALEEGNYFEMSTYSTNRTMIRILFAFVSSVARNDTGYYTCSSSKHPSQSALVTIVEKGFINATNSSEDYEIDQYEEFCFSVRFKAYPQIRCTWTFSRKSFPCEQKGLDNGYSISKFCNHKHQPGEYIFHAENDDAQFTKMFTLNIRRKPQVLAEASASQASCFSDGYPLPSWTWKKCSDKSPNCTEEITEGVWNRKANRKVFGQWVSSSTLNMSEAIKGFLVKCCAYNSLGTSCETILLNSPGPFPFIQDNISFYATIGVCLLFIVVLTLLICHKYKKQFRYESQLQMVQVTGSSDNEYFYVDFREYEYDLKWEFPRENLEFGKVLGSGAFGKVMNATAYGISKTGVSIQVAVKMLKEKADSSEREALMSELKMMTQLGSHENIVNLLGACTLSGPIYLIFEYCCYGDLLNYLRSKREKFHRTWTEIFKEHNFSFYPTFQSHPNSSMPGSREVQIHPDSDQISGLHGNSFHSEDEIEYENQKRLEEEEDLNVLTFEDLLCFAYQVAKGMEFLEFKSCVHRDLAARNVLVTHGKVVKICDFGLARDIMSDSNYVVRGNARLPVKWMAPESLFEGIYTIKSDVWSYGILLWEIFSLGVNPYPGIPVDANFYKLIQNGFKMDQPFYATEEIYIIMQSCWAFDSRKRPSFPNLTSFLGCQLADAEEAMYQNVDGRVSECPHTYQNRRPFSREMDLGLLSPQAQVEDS

[5] = target: T2, Probable ATP-dependent RNA helicase DDX6 (Homo sapiens, UniProt P26196)
T2 sequence (P26196 whole entry): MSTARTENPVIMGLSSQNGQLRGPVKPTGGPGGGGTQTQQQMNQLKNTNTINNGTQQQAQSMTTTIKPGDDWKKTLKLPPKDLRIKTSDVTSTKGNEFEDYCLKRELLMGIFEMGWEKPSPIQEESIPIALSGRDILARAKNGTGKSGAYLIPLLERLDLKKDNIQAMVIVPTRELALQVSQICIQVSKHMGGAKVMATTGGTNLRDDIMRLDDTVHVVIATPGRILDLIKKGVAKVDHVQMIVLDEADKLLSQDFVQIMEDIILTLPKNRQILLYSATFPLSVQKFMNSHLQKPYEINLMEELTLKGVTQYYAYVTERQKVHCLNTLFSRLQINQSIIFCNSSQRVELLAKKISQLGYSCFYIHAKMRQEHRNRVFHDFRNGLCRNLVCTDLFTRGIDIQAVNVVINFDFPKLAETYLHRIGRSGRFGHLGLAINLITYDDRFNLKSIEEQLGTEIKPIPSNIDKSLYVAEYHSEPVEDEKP

[6] = target: T3, Serine/threonine-protein kinase TAO1 (Homo sapiens, UniProt Q7L7X3)
T3 sequence (Q7L7X3 whole entry): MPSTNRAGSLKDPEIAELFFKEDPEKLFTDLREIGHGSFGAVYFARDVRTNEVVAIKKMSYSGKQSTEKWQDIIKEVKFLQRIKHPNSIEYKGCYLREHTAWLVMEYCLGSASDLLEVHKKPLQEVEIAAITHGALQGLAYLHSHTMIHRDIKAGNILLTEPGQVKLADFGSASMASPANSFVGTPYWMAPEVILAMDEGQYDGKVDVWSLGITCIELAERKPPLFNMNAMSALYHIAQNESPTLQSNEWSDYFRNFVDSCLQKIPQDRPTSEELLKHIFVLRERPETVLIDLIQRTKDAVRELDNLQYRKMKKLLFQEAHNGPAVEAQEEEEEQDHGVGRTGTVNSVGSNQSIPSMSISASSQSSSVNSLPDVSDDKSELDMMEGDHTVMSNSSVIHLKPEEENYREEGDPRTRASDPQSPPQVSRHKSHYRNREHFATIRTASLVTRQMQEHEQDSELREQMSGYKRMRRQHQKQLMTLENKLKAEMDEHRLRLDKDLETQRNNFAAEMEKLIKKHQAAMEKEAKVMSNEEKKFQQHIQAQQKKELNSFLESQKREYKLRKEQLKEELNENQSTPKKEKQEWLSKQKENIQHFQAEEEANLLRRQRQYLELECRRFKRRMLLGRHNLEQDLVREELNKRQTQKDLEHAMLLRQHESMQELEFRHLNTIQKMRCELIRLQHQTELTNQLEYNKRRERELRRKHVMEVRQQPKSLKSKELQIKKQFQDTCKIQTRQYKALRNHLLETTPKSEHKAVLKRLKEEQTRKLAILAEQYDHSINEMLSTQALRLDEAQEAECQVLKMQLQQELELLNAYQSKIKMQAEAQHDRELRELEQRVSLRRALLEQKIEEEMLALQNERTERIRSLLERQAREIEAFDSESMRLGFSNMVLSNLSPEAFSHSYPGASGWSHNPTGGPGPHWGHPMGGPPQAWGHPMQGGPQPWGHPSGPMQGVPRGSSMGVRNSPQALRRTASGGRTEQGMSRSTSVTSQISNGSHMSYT

[7] = target: MAP kinase-activated protein kinase 2 (Homo sapiens, UniProt P49137)
[8] = target: Protein-tyrosine kinase 6 (Homo sapiens, UniProt Q13882)

Measured: Kd
Also: in the data inactive means no Kd found up to 30 µM.

Chain of Protein-tyrosine kinase 6 (Q13882 whole entry): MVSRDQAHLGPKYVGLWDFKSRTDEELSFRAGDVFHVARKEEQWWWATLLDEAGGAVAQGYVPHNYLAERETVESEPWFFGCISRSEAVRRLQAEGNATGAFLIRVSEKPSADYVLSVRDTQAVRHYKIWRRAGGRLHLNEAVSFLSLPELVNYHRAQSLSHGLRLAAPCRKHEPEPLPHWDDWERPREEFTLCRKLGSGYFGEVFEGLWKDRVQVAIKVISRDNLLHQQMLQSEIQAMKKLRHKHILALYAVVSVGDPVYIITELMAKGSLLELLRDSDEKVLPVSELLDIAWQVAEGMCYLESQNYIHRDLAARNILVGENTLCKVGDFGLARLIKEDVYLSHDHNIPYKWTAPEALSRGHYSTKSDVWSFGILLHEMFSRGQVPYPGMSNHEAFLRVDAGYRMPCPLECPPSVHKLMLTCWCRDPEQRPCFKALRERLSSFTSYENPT
Chain of Chromodomain-helicase-DNA-binding protein 4 (Q14839 whole entry): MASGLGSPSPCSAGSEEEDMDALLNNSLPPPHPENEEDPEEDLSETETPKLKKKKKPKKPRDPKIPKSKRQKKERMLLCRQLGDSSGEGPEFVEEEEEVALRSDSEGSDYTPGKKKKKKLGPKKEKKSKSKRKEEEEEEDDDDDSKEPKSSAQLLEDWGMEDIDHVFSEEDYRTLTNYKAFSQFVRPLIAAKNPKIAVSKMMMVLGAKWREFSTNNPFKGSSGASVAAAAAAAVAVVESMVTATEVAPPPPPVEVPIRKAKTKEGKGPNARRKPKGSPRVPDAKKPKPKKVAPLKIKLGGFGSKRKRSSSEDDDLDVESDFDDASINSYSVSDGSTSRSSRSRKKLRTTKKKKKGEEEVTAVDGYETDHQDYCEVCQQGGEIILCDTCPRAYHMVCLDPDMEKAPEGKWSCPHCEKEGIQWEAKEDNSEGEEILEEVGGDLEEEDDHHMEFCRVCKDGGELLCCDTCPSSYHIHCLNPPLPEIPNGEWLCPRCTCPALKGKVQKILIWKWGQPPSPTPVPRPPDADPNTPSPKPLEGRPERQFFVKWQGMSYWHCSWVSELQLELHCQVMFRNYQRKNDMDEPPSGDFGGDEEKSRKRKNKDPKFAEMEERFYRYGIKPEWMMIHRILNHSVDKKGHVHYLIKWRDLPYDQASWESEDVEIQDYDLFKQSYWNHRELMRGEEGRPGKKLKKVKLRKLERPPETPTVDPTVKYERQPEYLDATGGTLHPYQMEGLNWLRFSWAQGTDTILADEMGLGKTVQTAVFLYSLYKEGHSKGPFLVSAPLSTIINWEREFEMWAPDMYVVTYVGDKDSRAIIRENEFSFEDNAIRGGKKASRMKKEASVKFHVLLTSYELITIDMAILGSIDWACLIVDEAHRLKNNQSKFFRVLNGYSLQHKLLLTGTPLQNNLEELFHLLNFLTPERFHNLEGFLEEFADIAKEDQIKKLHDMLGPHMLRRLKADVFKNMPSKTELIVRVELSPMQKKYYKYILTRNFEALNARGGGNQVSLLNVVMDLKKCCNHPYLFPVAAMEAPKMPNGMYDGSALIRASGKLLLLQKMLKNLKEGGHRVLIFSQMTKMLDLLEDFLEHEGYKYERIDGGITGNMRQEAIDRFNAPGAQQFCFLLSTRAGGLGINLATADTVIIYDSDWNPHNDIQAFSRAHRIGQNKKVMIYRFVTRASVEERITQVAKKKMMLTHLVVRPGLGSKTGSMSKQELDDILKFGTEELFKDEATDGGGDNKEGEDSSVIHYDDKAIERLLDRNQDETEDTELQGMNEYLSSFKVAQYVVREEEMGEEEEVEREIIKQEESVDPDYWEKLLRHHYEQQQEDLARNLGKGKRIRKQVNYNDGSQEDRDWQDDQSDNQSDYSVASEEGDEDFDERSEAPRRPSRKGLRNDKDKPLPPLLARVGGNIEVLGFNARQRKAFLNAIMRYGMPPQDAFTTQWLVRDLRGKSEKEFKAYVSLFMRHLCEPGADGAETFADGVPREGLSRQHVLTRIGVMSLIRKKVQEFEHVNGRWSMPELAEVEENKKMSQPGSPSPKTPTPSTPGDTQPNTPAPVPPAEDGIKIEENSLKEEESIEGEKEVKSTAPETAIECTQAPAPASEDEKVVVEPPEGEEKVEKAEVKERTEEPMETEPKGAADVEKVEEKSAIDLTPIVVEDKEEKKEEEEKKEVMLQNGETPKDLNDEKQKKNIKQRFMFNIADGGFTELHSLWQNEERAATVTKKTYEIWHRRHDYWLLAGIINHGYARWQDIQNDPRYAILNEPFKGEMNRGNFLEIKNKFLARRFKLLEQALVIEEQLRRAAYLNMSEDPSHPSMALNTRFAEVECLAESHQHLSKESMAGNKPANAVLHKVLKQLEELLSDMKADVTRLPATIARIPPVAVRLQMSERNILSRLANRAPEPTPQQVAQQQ
Chain of Interleukin-1 receptor-associated kinase 1 (P51617 whole entry): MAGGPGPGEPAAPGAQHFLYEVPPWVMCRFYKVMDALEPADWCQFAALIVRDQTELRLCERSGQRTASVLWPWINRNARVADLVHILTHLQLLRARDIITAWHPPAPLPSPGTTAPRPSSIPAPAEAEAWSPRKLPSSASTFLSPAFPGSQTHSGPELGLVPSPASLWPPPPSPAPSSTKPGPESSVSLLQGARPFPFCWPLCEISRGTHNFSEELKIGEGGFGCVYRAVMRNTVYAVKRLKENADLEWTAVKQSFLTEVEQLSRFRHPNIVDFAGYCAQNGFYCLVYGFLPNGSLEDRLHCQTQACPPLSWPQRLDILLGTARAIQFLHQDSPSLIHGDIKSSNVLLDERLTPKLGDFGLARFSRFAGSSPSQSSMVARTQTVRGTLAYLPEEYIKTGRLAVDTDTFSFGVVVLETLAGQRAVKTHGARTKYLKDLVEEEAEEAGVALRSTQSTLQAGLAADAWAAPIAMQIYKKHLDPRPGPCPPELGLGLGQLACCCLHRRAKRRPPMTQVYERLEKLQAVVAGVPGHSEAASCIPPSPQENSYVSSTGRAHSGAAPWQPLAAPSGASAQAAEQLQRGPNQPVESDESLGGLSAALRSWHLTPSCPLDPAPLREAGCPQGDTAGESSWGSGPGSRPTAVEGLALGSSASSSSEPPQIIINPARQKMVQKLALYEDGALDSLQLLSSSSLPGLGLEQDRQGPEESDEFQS
Chain of MAP kinase-activated protein kinase 2 (P49137 whole entry): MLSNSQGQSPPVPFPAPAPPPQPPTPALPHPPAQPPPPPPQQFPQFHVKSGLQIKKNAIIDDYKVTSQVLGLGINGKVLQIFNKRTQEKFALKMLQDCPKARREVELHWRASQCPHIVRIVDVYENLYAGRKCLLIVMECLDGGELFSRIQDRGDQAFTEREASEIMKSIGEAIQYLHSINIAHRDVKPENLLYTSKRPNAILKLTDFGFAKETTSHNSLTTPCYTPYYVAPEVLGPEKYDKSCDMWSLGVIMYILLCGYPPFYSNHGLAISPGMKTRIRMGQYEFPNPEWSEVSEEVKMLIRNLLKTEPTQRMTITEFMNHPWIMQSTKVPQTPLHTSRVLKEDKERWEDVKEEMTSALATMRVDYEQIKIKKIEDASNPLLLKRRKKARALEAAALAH

Cn1cc(-c2ccc3nnc(C(F)(F)c4ccc5ncccc5c4)n3n2)cn1 [JNJ-38877605]
inactive: [1] > 30 µM | [2] > 30 µM | [3] > 30 µM | [4] > 30 µM | [5] > 30 µM | [6] > 30 µM | [7] > 30 µM | [8] > 30 µM

CC[C@H](Nc1ncnc2[nH]cnc12)c1nc2cccc(F)c2c(=O)n1-c1ccccc1 [IDELALISIB]
inactive: [1] > 30 µM | [2] > 30 µM | [3] > 30 µM | [4] > 30 µM | [5] > 30 µM | [6] > 30 µM | [7] > 30 µM | [8] > 30 µM

CN1CC[C@@H](c2c(O)cc(O)c3c(=O)cc(-c4ccccc4Cl)oc23)[C@@H]1CO
inactive: [1] > 30 µM | [2] > 30 µM | [3] > 30 µM | [4] > 30 µM | [5] > 30 µM | [6] > 30 µM | [7] > 30 µM | [8] > 30 µM

CN1N=C(N)c2cn([C@@H]3O[C@H](COP(=O)(O)O)[C@@H](O)[C@H]3O)c3ncnc1c23 [TRICIRIBINE PHOSPHATE]
inactive: [1] > 30 µM | [2] > 30 µM | [3] > 30 µM | [4] > 30 µM | [5] > 30 µM | [6] > 30 µM | [7] > 30 µM | [8] > 30 µM

O=C(c1ccc(F)c(F)c1Nc1ccc(I)cc1F)N1CC(O)([C@@H]2CCCCN2)C1 [COBIMETINIB]
inactive: [1] > 30 µM | [2] > 30 µM | [3] > 30 µM | [4] > 30 µM | [5] > 30 µM | [6] > 30 µM | [7] > 30 µM | [8] > 30 µM

Cc1cc(-c2cc(O)ccc2Cl)cc2nnc(Nc3ccc(OCCN4CCCC4)cc3)nc12
inactive: [1] > 30 µM | [2] > 30 µM | [3] > 30 µM | [4] > 30 µM | [5] > 30 µM | [6] > 30 µM | [7] > 30 µM | [8] > 30 µM
